From patent US3989836A, “Method for treating cardiovascular circulatory insufficiencies and hypotonia with 2-hydroxyphenyl-1-oxa-4-azaspiroalkane derivatives” (Warner-Lambert Company, priority 1973, dated 1976)
Like-named read-outs stand apart in the source and are kept apart here.

Assays:
Assay type in all cases: in vivo
[1] = Toxicity on mice (LD50 i.g., largest dose i.v. at which all animals survive)
average blood pressure [2] = experiment: Sympathomimetic action: increase of the average blood pressure in % of initial value (awake dogs); settings: for increase of the average blood pressure: i.g. up to 20 mg/kg
Description: Ii. sympathomimetic action was determined by measurement of the arterial and venous blood pressure using Statham transducers. The measured values were recorded by means of a direct recording instrument. In the case of intragastric administration, the substances were administered in the form of an aqueous solution by means of a stomach probe. Quiet and compatible dogs were trained to lie, without sedation, for a few hours on an operating board. Under local anesthesia, a catheter was introduced into the arteria femoralis. A measurement of arterial blood pressure was then carried out using the catheter and a Statham transducer.

[3] = Toxicity on mice (LD50 i.g., largest dose i.v. at which all animals survive); settings: for LD50: mouse, in vivo, po; for LD50 i.g.: mice, footnote: not determinable because of insufficient resorption, no dosage-dependent death of the animals
Description: I. toxicity was determined on mice in the usual manner; the test and comparison substances being administered in aqueous solution by means of a stomach probe.

average blood pressure [4] = experiment: Sympathomimetic action: increase of the average blood pressure by 25% over the initial value (narcotised dogs); settings: for ED (25% increase): Canis lupus familiaris, read-out: dose for increase of the average blood pressure by 25% over the initial value
Description: Ii. sympathomimetic action was determined by measurement of the arterial and venous blood pressure using Statham transducers. The measured values were recorded by means of a direct recording instrument. As experimental animals, adult dogs of both sexes, were used; these had been narcotised with pentobarbital. During the experiment, the animals were kept at their specific body temperature by means of rectum-controlledinfra-red lamps. The compounds tested were injected, in the form of an isotonic solution, into the side branch of the vena femoralis. In the case of intraduodenal administration, the animals were laparotomised, and a cannula was fixed into the small intestine so that the substance, in the form of an aqueous solution, could be introduced directly into the intestine. Furthermore, the pylorus was ligatured in order to prevent regurgitation of the substance into the stomach. In the case of intragastric administration, the substances were administered in the form of an aqueous solution by means of a stomach probe.

Row | SMILES | largest dose i.v. at which all animals survive [1] [mg/kg] | duration of increase of the average blood pressure (average blood pressure [2]; i.g. 4 mg/kg) | increase of the average blood pressure in % of initial value (average blood pressure [2]; i.g. 4 mg/kg) [%] | increase of the average blood pressure in % of initial value (average blood pressure [2]; i.v. 0.05 mg/kg) | LD50 [3] [mg/kg] | ED (25% increase) (average blood pressure [4]; intraduodenal, i.d.) [mg/kg] | duration of increase of the average blood pressure by 25% over the initial value (average blood pressure [4]; i.d. 2.0 mg/kg) | duration of increase of the average blood pressure (average blood pressure [2]; i.g. 2 mg/kg) | increase of the average blood pressure in % of initial value (average blood pressure [2]; i.g. 2 mg/kg) [%] | ED (25% increase) (average blood pressure [4]; po, i.g.) [mg/kg] | duration of increase of the average blood pressure by 25% over the initial value (average blood pressure [4]; i.g. 2.0 mg/kg) | duration of increase of the average blood pressure (average blood pressure [2]; i.g. 16 mg/kg) | increase of the average blood pressure in % of initial value (average blood pressure [2]; i.g. 16 mg/kg) [%] | increase of the average blood pressure in % of initial value (average blood pressure [2]; i.v. 1 mg/kg) | duration of increase of the average blood pressure by 25% over the initial value (average blood pressure [4]; i.g. 4.0-16.0 mg/kg) | increase of the average blood pressure (average blood pressure [2]) | LD50 i.g. [3]
1 | Oc1cccc(C2CNC3(CCCCC3)O2)c1 (stereo not shown) [A, 2-(3'-hydroxyphenyl)-1-oxa-4-azaspiro[4,5]decane] | 3.3 | > 60 ' | 40 | 50-80% | > 400 | 2 | > 50 ' | – | – | – | – | – | – | – | – | – | –
2 | Oc1cccc(C2CNC3(CCCCCC3)O2)c1 (stereo not shown) [B, 2-(3'-hydroxyphenyl)-1-oxa-4-azaspiro[4,6]undecane] | 3.3 | – | – | 40-70% | ~400 | – | – | 70 ' | 35 | 2 | > 60 ' | – | – | – | – | – | –
3 | CC1=CC2(CC(C)(C)C1)NCC(c1cccc(O)c1)O2 (stereo not shown) [C, 7,9,9-trimethyl-2-(3'-hydroxyphenyl)-1-oxa-4-azaspiro-[4,5]dec-6-ene] | 20.7 | – | – | – | ~1200 | – | – | – | – | 4 to 16 | – | 34 ' | 50 | 30-60% | 60 ' | – | –
4 | NCC(O)c1cccc(O)c1 (stereo not shown) [D, 1-(3'-hyroxyphenyl)-2-aminoethanol, reference compound] | 3.3 | – | – | 50-70% | – | > 20 | – | – | – | – | – | – | – | – | – | without effect | not determinable
5 | CCNCC(O)c1cccc(O)c1 (stereo not shown) [E, 1-(3'-hydroxyphenyl)-2-ethylaminoethanol, reference compound] | 7.25 | – | – | 25% | – | > 20 | – | – | – | – | – | – | – | – | – | without effect | not determinable
